Data reported in US20250009856A1, “METHODS FOR TREATING RESPIRATORY DISEASES” (MUCPharm Pty Ltd, priority 2021, published 2025).
Values joined by “and” are separate entries in the source; they are usually repeats but may differ in a detail not shown here. Equal entries are not always repeated.

Tests used:
sheep lungs = assay: Ventilated sheep lung model, endotracheal tube plugged with PMP mucin; conditions: nebulised twice over 60 minutes; saline showed slight drop
[1] = Bromelain and acetylcysteine in plasma (ELISA), rabbit tolerability study; conditions: 4, 6, 24 and 48 h post-inhalation of 0.1 or 0.25 mg bromelain alone or in combination with acetylcysteine
[2] = Dynamic viscosity (capillary tube) after aerosol treatment; conditions: AS; for Dynamic viscosity (γ), After: before 1.382 ± 0.013
Procedure: Artificial sputum was prepared following protocol as detailed by […] et al (Kirchner, S., et al., Use of artificial sputum medium to test antibiotic efficacy against Pseudomonas aeruginosa in conditions more relevant to the cystic fibrosis lung. Journal of visualized experiments: JOVE, 2012 (64)). Briefly 250 mg of porcine mucin, 200 mg of sperm DNA, 295 mg of diethylene triamine pentaacetic acid (DPTA), 25 mg sodium chloride, 110 mg potassium chloride, 140 mg Tris base were mixed in a volume of 45 ml of distilled water and pH adjusted to 7.0 using Trisbase. The volume of the solution was then adjusted to 50 ml. Further dilutions were then carried out to adjust viscosity as desired. Dynamic viscosity (Y) of sputum was measured using the capillary tube method as outlined in […]. and G. Castellano, Determination of the kinematic viscosity by the liquid rise in a capillary tube. […] Ensino de Física, 2013. 35. Artificial sputa (AS) were prepared as detailed above, and 1.5 ml of artificial sputum was carefully emptied into an endotracheal tube (in triplicates). A volume of 6.0 ml of NAC 10 mg/ml in PBS (pH.7.0) in triplicate was aerosolised using a nebulizer and passed over the sputum samples in the endotracheal tubes kept at 37° C. in a water bath. Similarly, the experiments were repeated using NAC 20 mg/ml in PBS (pH.7.0). The controls only received PBS (pH 7.0). The aerosol delivery time to empty 6.0 ml for each treatment was 25 min. The dynamic viscosity of the sputa was measured before and after using the capillary tube method, whilst the pipette flow time was also measured as described earlier using a 0.5 ml glass pipette. Samples were equilibrated to 25° C. before measurement A similar treatment as in the experiment described above for NAC was carried out using Bromelain (125 and 250 μg/ml) in PBS (pH.7.0) along with control using PBS (pH.7.0). Both dynamic viscosity and pipette flow time was measured as outlined earlier for both artificial and PMP simulated sputa models. Using a combination of NAC (20 mg/ml) with either 125 or 250 μg/ml Bromelain in PBS (pH.7.0), a similar investigation was carried out as outlined earlier and measurements were made for both artificial and simulated sputa models. D=(TREATED)-(UNTREATED/(UNTREATED)×100.

[3] = Sputum flow speed after mixing with BromAc, DNase and combinations; conditions: agent without DNASE: BR(250 ug/ml), NAC(20 mg/ml) or both; 1 hour, 37 deg C; Cont(PBS) 0.0436
Procedure: Artificial sputa was prepared following methodology with ingredients as in earlier experiments. To 1.5 ml of artificial sputa in a vial was added 0.5 ml of reagent containing the required bromelain, NAC, DNase and their combinations. Control vials included 0.5 ml of PBS only. The mixture was vortex mixed and incubated in a shaker water bath at 37 deg C. At the end of 1 hour, the samples were retrieved, vortex mixed and equilibrated to ambient room temperature before measuring dynamic viscosity and pipette flow.
Dynamic viscosity was determined using the capillary tube method as in earlier experiments, whilst the pipette flow was evaluated using a 0.5 ml pipette inclined at 60 deg angle. The pipette flow was calculated as shown below.
Pipette flow (€)=0.45 ml sputa/time to empty (sec).

[4] = Pipette flow speed after aerosol treatment; parameters: species or system human; conditions: SS; for Pipette flow speed (€), After: before 0.0137 ± 0.005
Procedure: Six grams of soft PMP mucin was homogenised using a shredder with phosphate buffer saline (PBS) (3.0 ml) with sonification and vortexed until a homogenous mixture was formed, with incubation at 37° C. to remove air bubbles and after which viscosity was adjusted (further dilutions with PBS). The pH was adjusted to 7.0 using either 1.0 M NaOH or 0.1 N Hydrochloric acid. Using a 0.5 ml glass pipette fixed at an angle of 60°, 0.5 ml of sample at 25° C. (ambient room temperature) was sucked up the pipette and the time taken to empty 0.3 ml of the sample was timed in sec. Pipette flow time (€) was calculated as follows: € (ml/sec)=0.3 ml/Time to empty 0.3 ml (sec) A similar investigation as above was carried out to determine a comparative dynamic viscosity and pipette flow time for PMP mucin simulated sputa (SS). A similar treatment as in the experiment described above for NAC was carried out using Bromelain (125 and 250 μg/ml) in PBS (pH.7.0) along with control using PBS (pH.7.0). Both dynamic viscosity and pipette flow time was measured as outlined earlier for both artificial and PMP simulated sputa models. Using a combination of NAC (20 mg/ml) with either 125 or 250 μg/ml Bromelain in PBS (pH.7.0), a similar investigation was carried out as outlined earlier and measurements were made for both artificial and simulated sputa models. D=(TREATED)−(UNTREATED/(UNTREATED)×100.

[5] = Dynamic viscosity (capillary tube) after aerosol treatment; parameters: species or system human; conditions: SS; for Dynamic viscosity (γ), After: before 1.748 ± 0.006
Procedure: Six grams of soft PMP mucin was homogenised using a shredder with phosphate buffer saline (PBS) (3.0 ml) with sonification and vortexed until a homogenous mixture was formed, with incubation at 37° C. to remove air bubbles and after which viscosity was adjusted (further dilutions with PBS). The pH was adjusted to 7.0 using either 1.0 M NaOH or 0.1 N Hydrochloric acid. Dynamic viscosity (Y) of sputum was measured using the capillary tube method as outlined in […]. and G. Castellano, Determination of the kinematic viscosity by the liquid rise in a capillary tube. […] Ensino de Física, 2013. 35. A similar investigation as above was carried out to determine a comparative dynamic viscosity and pipette flow time for PMP mucin simulated sputa (SS). A similar treatment as in the experiment described above for NAC was carried out using Bromelain (125 and 250 μg/ml) in PBS (pH.7.0) along with control using PBS (pH.7.0). Both dynamic viscosity and pipette flow time was measured as outlined earlier for both artificial and PMP simulated sputa models. Using a combination of NAC (20 mg/ml) with either 125 or 250 μg/ml Bromelain in PBS (pH.7.0), a similar investigation was carried out as outlined earlier and measurements were made for both artificial and simulated sputa models. D=(TREATED)-(UNTREATED/(UNTREATED)×100.

SMILES: CC(=O)N[C@@H](CS)C(=O)O [NAC, N-acetylcysteine]
- Minute volume (MV) over 60 minutes (sheep lungs): substantial rise in MV
- detection in plasma (ELISA) [1]: not detected
- D (%), decrease of dynamic viscosity (γ) ([2]; aerosol NAC 10 mg/ml): 6.0% and 6.0 ↓ %
- Dynamic viscosity (γ), After ([2]; aerosol NAC 10 mg/ml, 6.0 ml over 25 min, 37° C.): 1.300 ± 0.002 cSt
- D (%), decrease of dynamic viscosity (γ) ([2]; aerosol NAC 20 mg/ml): 9.8% and 10% and 9.8 ↓ %
- Dynamic viscosity (γ), After ([2]; aerosol NAC 20 mg/ml): 1.247 ± 0.041 cSt
- Sputum flow speed (€) [3]: 0.05 mL/s
- D (%), increase of pipette flow speed (€) ([4]; aerosol NAC 10 mg/ml): 34% and 34 ↑ %
- Pipette flow speed (€), After ([4]; aerosol NAC 10 mg/ml): 0.0183 ± 0.001 mL/s
- D (%), increase of pipette flow speed (€) ([4]; aerosol NAC 20 mg/ml): 46% and 46 ↑ %
- Pipette flow speed (€), After ([4]; aerosol NAC 20 mg/ml): 0.02 ± 0.002 mL/s
- D (%), decrease of dynamic viscosity (γ) ([5]; aerosol NAC 10 mg/ml): 16% and 16 ↓ %
- Dynamic viscosity (γ), After ([5]; aerosol NAC 10 mg/ml): 1.467 ± 0.011 cSt
- D (%), decrease of dynamic viscosity (γ) ([5]; aerosol NAC 20 mg/ml): 17% and 17 ↓ %
- Dynamic viscosity (γ), After ([5]; aerosol NAC 20 mg/ml): 1.453 ± 0.055 cSt
